One block for each compound: values may come before it. Calls of active or inactive are those of the source. No cut-off for these calls is given here. Numbered stars: 1 amine (or outer) side, 2 acyl side, 3 side chain; on linkers, the order of the positions; unused ones are H or OH. Square brackets hold non-standard residues; d marks the D form. Peptide text beside a SMILES is read from it. * marks the point of attachment. X2 = CC(C)(C(=O)*)n1cc(-c2cccc(C(F)(F)F)c2)nn1; X1 = CC(=O)CCCC[C@H](N[*:1])C(=O)[*:2]; Aib = CC(C)(N)C(=O)O
How the values were obtained:
[1] = Metabolic stability in rat serum assessed as parent compound remaining at 66.6 uM after 24 hr incubation by LC-MS analysis relative to control; type: ADME, cell-free; settings: read-out: Stability
HEK293 [2] = assay: Inhibition of VDAC in mitochondria of HEK293 cells transfected with mitoGCaMP2 assessed as calcium efflux by measuring mitoGCaMP2 fluorescence in cytoplasm at 33 uM by DAPI staining confocal imaging analysis; type: subcellular; settings: Homo sapiens
HEK293 [3] = assay: Inhibition of VDAC in mitochondria of HEK293 cells transfected with mitoGCaMP2 assessed as calcium efflux from mitochondria by measuring decrease in mitoGCaMP2 fluorescence at 6 mM by DAPI staining confocal imaging analysis; settings: Homo sapiens, time 30.0 min
HEK293 [4] = assay: Inhibition of VDAC in mitochondria of HEK293 cells transfected with mitoGCaMP2 assessed as calcium efflux from mitochondria by measuring decrease in mitoGCaMP2 fluorescence at 33 uM by DAPI staining confocal imaging analysis; settings: Homo sapiens
Mus musculus [5] = species: Mus musculus; assay: Inhibition of demyelination in sciatic nerve explant C57BL6/J mouse model assessed as reduction in fiber damage level in serum free medium at 3 uM measured after 24 hrs by coherent anti Stokes raman scattering assay; type: functional
Mus musculus [6] = species: Mus musculus; assay: Inhibition of demyelination in sciatic nerve explant C57BL6/J mouse model assessed as reduction in fiber damage level in serum containing medium at 3 uM measured after 24 hrs by coherent anti Stokes raman scattering assay; type: functional
Homo sapiens = species: Homo sapiens; assay: Inhibition of VDAC (unknown origin) mediated mitochondrial Ca2+ release at 100 uM
[7] = Inhibition of VDAC mediated mitochondrial Ca2+ release in HEK293 cells transfected with mitoGCaMP2; type: cell-based; settings: Homo sapiens
[8] = Metabolic stability in rat serum assessed as parent compound remaining at 66.6 uM after 1 hr incubation by LC-MS analysis relative to control; type: ADME, cell-free; settings: read-out: Stability

Compound: CC/C=C\C[C@H]1C(=O)CC[C@@H]1CC(=O)OC
inhibition (HEK293 [2]): Active
inhibition (HEK293 [3]): Active
inhibition (HEK293 [4]): Active

Compound: Ac-AQWWAYYFTEWKGRKKRRQRRRPPQ-NH2
inhibition (Mus musculus [5]): Active

Compound: C[C@H](NC(=O)C(C)(C)n1cc(-c2cccc(C(F)(F)F)c2)nn1)C(=O)N[C@@H](CCC(N)=O)C(=O)N[C@@H](Cc1c[nH]c2ccccc12)C(=O)N[C@@H](Cc1c[nH]c2ccccc12)C(=O)NC(C)(C)C(=O)N[C@@H](Cc1ccc(O)cc1)C(=O)N[C@@H](Cc1ccc(O)cc1)C(=O)N[C@@H](Cc1ccccc1)C(=O)N[C@H](C(=O)N[C@@H](CCC(=O)O)C(=O)N[C@@H](Cc1c[nH]c2ccccc12)C(=O)N[C@@H](CCCCN)C(=O)NCC(=O)N[C@@H](CCCNC(=N)N)C(=O)N[C@@H](CCCCN)C(=O)N[C@@H](CCCCN)C(=O)N[C@@H](CCCNC(=N)N)C(=O)N[C@@H](CCCNC(=N)N)C(=O)N[C@@H](CCC(N)=O)C(=O)N[C@@H](CCCNC(=N)N)C(=O)N[C@@H](CCCNC(=N)N)C(=O)N[C@@H](CCCNC(=N)N)C(=O)N1CCC[C@H]1C(=O)N1CCC[C@H]1C(=O)N[C@@H](CCC(N)=O)C(N)=O)[C@@H](C)O (X2-AQWW[Aib]YYFTEWKGRKKRRQRRRPPQ-NH2)
inhibition (Mus musculus [5]): Active
inhibition (Mus musculus [6]): Active

Compound: CC(=O)N[C@@H](C)C(=O)NC(C)(C)C(=O)N[C@@H](C)C(=O)NC(C)(C)C(=O)N[C@@H](C)C(=O)N[C@@H](CCC(N)=O)C(=O)N[C@@H](CC(C)C)C(=O)N[C@@H](CC(C)C)C(=O)NC(C)(C)C(=O)N[C@@H](Cc1ccc(O)cc1)C(=O)N[C@@H](Cc1ccc(O)cc1)C(=O)N[C@@H](Cc1ccccc1)C(=O)N[C@H](C(=O)N[C@@H](CCC(=O)O)C(=O)N[C@@H](CC(C)C)C(=O)N[C@@H](CCCCN)C(=O)NCC(=O)N[C@@H](CCCNC(=N)N)C(=O)N[C@@H](CCCCN)C(=O)N[C@@H](CCCCN)C(=O)N[C@@H](CCCNC(=N)N)C(=O)N[C@@H](CCCNC(=N)N)C(=O)N[C@@H](CCC(N)=O)C(=O)N[C@@H](CCCNC(=N)N)C(=O)N[C@@H](CCCNC(=N)N)C(=O)N[C@@H](CCCNC(=N)N)C(=O)N1CCC[C@H]1C(=O)N1CCC[C@H]1C(=O)N[C@@H](CCC(N)=O)C(N)=O)[C@@H](C)O (Ac-A[Aib]A[Aib]AQLL[Aib]YYFTELKGRKKRRQRRRPPQ-NH2)
inhibition (Mus musculus [5]): Active
inhibition (Mus musculus [6]): Active

Compound: CCCC[C@H](NC(=O)[C@H](CCC(N)=O)NC(=O)[C@@H]1CCCN1C(=O)[C@@H]1CCCN1C(=O)[C@H](CCCNC(=N)N)NC(=O)[C@H](CCCNC(=N)N)NC(=O)[C@H](CCCNC(=N)N)NC(=O)[C@H](CCC(N)=O)NC(=O)[C@H](CCCNC(=N)N)NC(=O)[C@H](CCCNC(=N)N)NC(=O)[C@H](CCCCN)NC(=O)[C@H](CCCCN)NC(=O)[C@H](CCCNC(=N)N)NC(=O)CNC(C)=O)C(=O)N[C@H](C(=O)N[C@@H](C)C(=O)N[C@@H](C)C(=O)N[C@@H](CCC(N)=O)C(=O)N[C@@H](CC(C)C)C(=O)N[C@@H](CC(C)C)C(=O)N[C@@H](C)C(=O)N[C@@H](Cc1ccc(O)cc1)C(=O)N[C@@H](Cc1ccc(O)cc1)C(=O)N[C@@H](Cc1ccccc1)C(=O)N[C@H](C(=O)N[C@@H](CCC(=O)O)C(=O)N[C@@H](CC(C)C)C(=O)N[C@@H](CCCCN)C(N)=O)[C@@H](C)O)[C@@H](C)CC
IC50 [7]: 13.9 µM

Second part, the compound after the results:

remaining at 24 h, 66.6 µM [1]: 65%
Compound: CC(=O)N[C@@H](C)C(=O)N[C@@H](CCC(N)=O)C(=O)N[C@@H](CC(C)C)C(=O)N[C@@H](CC(C)C)C(=O)NC(C)(C)C(=O)N[C@@H](Cc1ccc(O)cc1)C(=O)N[C@@H](Cc1ccc(O)cc1)C(=O)N[C@@H](Cc1ccccc1)C(=O)N[C@H](C(=O)N[C@@H](CCC(=O)O)C(=O)N[C@@H](CC(C)C)C(=O)N[C@@H](CCCCN)C(N)=O)[C@@H](C)O (Ac-AQLL[Aib]YYFTELK-NH2)

inhibition (HEK293 [2]): Active
inhibition (Homo sapiens): Active
inhibition (HEK293 [4]): Active
IC50 [7]: 15.6 µM
Compound: CC[C@H](C)[C@H](NC(=O)[C@@H](N)CCCCC(C)=O)C(=O)N[C@@H](C)C(=O)N[C@@H](C)C(=O)N[C@@H](CCC(N)=O)C(=O)N[C@@H](CC(C)C)C(=O)N[C@@H](CC(C)C)C(=O)N[C@@H](C)C(=O)N[C@@H](Cc1ccc(O)cc1)C(=O)N[C@@H](Cc1ccc(O)cc1)C(=O)N[C@@H](Cc1ccccc1)C(=O)N[C@H](C(=O)N[C@@H](CCC(=O)O)C(=O)N[C@@H](CC(C)C)C(=O)N[C@@H](CCCCN)C(=O)NCC(=O)N[C@@H](CCCNC(=N)N)C(=O)N[C@@H](CCCCN)C(=O)N[C@@H](CCCCN)C(=O)N[C@@H](CCCNC(=N)N)C(=O)N[C@@H](CCCNC(=N)N)C(=O)N[C@@H](CCC(N)=O)C(=O)N[C@@H](CCCNC(=N)N)C(=O)N[C@@H](CCCNC(=N)N)C(=O)N[C@@H](CCCNC(=N)N)C(=O)N1CCC[C@H]1C(=O)N1CCC[C@H]1C(=O)N[C@@H](CCC(N)=O)C(N)=O)[C@@H](C)O (H-[X1]IAAQLLAYYFTELKGRKKRRQRRRPPQ-NH2)

remaining at 1 h, 66.6 µM [8]: 8%
Compound: Ac-AQLLAYYFTELK-NH2

IC50 [7]: 3.6 µM
Compound: Ac-AQWWAYYFTEWK-NH2

remaining at 24 h, 66.6 µM [1]: 75%
Compound: CC(=O)N[C@@H](C)C(=O)NC(C)(C)C(=O)N[C@@H](C)C(=O)NC(C)(C)C(=O)N[C@@H](C)C(=O)N[C@@H](CCC(N)=O)C(=O)N[C@@H](CC(C)C)C(=O)N[C@@H](CC(C)C)C(=O)NC(C)(C)C(=O)N[C@@H](Cc1ccc(O)cc1)C(=O)N[C@@H](Cc1ccc(O)cc1)C(=O)N[C@@H](Cc1ccccc1)C(=O)N[C@H](C(=O)N[C@@H](CCC(=O)O)C(=O)N[C@@H](CC(C)C)C(=O)N[C@@H](CCCCN)C(N)=O)[C@@H](C)O (Ac-A[Aib]A[Aib]AQLL[Aib]YYFTELK-NH2)

From ChEMBL document CHEMBL5126620, “Mapping the N-Terminal Hexokinase-I Binding Site onto Voltage-Dependent Anion Channel-1 To Block Peripheral Nerve Demyelination” (J Med Chem, 2022)
